Reference: US20050208088A1, “Pesticidal composition and method for pest control” (priority 2004, published 2005)

Test system: thrips
Assay: Thrips control in cotton, seed treatment field trials (1) and (2)
Type: in vivo, thrips on cotton
Conditions: for Adult Thrips 14 DAP / Immature Thrips 14 DAP / Immature Thrips 21 DAP: cotton DP 555 BR, seed treatment; for Adult Thrips 14 DAP / Immature Thrips 14 DAP: 14 days after planting; for Adult Thrips 14 DAP: number of adult thrips; for Immature Thrips 14 DAP / Immature Thrips 21 DAP: number of immature thrips; for Immature Thrips 21 DAP / Damage 21 DAP: 21 days after planting; for Damage 21 DAP: visual plant damage rating, scale 1 to 5 (1=no damage, 3=moderate damage, 5=severe damage)
Experimental: (a) A base fungicide seed treatment formulation is prepared by diluting a concentrate containing 3.32% mefenoxam (CAS# 70630-17-0), 1.11% fludioxonil (CAS# 131341-86-1) and 6.64% azoxystrobin (CAS# 131860-33-8), into water as a carrier. […] Seed treated are allowed to air dry and shipped and stored at ambient temperature prior to planting (approximately two weeks). (b) A seed treatment formulation is prepared by diluting Cruiser® […] seed treatment insecticide (Syngenta Crop Protection, Inc), which contains 49% thiamethoxam and the base fungicide concentrate described in (a), into water as a carrier. […] Seed treated are allowed to air dry and shipped and stored at ambient temperature prior to planting (approximately two weeks). (c) An abamectin seed treatment formulation is prepared by diluting an abamectin […] seed treatment nematicide formulation containing 46.3% abamectin and the base fungicide concentrate (a), into water as a carrier. […] Seed treated were allowed to air dry and were shipped and stored at ambient temperature prior to planting (approximately two weeks). The above formulations of thiamethoxam and abamectin were combined together into water as a carrier and with the base fungicide (a). […] This formulation dilution was applied for one to two minutes at ambient temperature to approximately one kilogram of Delta and Pine Land cottonseed (DP 555 BR) in a Hege seed treater. Seed treated were allowed to air dry and were shipped and stored at ambient temperature prior to planting (approximately two weeks). Control (a) and treated cottonseed (b) (c) and (d) were planted in field plots in two separate trials (1) and (2) as follows: Cottonseed is sown (4 seeds per foot) in plots with dimensions of 2 rows (36 inch row spacing) by 30-feet in a randomized complete block layout consisting of an control check (a), abamectin plus a base fungicide (c), thiamethoxam plus a base fungicide (b) and the combination of thiamethoxam and abamectin plus a base fungicide (d). […] Thrips were collected from five random plants within each replication of each treatment by collecting thrips in alcohol and counting the numbers of thrips using a dissecting scope in the laboratory.

Row | Compound | thrips control (14 and 21 days after planting, cotton seed treatment) | Adult Thrips 14 DAP (Trial (1)) [per five plants] | Immature Thrips 14 DAP (Trial (1)) [per five plants] | Immature Thrips 21 DAP (Trial (1)) [per five plants] | Damage 21 DAP (Trial (1)) | Immature Thrips 14 DAP (Trial (2)) [per five plants] | thrips control compared to the untreated check (trials 1 and 2, cotton seed treatment) [%]
1 | CN1COCN(Cc2cnc(Cl)s2)/C1=N\[N+](=O)[O-] [Thiamethoxam (b), thiamethoxam] | approximately 85% | 5 | 13 | 20.25 | 3.3 | 15 | 
2 | abamectin [Abamectin (c)] |  | 13 | 39.25 | 50.5 | 4 | 71.5 | ~50
